Experimental findings from US5453524A, “Phosphorus-containing isoprenoid derivatives” (Eisai Co., Ltd., priority 1991, dated 1995) are described below.

SMILES strings stand for the structures. Structures can show the parent of a compound that is named as a salt.

This test concerns the target T1, squalene synthetase (Rattus norvegicus, UniProt Q02769).
T1 construct: from tissue; host or cells: liver microsomes of cholestyramine-fed Sprague-Dawley rat
T1 sequence (Q02769 1-416): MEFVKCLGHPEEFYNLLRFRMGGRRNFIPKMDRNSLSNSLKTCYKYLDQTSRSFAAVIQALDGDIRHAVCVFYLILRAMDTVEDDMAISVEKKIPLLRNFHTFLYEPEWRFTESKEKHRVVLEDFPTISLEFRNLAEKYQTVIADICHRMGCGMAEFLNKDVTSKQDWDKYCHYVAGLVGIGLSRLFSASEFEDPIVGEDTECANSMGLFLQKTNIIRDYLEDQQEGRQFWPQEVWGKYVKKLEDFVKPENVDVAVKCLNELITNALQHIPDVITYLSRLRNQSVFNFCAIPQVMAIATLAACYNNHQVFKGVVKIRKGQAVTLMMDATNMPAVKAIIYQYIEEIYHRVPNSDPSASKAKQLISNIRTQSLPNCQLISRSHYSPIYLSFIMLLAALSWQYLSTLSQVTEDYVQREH
The test is described as follows: inhibitory activity against squalene synthetase with liver microsome of cholestyramine-treated rat. The test is classed as biochemical. The note with it: liver microsome of cholestyramine-treated Sprague-Dawley rat; 10 μM 3H-FPP, pH 7.4, 37° C., 10 min. How it is done: Determination of inhibitory activity against squalene synthetase with liver microsome of cholestyramine-treated rat
1 mM NADPH (nicotinamide adenine dinucleotide phosphate)
10 μM ^3 H-FPP (farnesylpyrophosphoric acid) (10 mCi/mmol, a product of New England Nuclea Co.)
0.1 mg/ml liver microsome of rat 37° C., 10 min.
These components were put in a spit tube as follows: […]
______________________________________
sample solution of 5-fold concentration
1 mg/ml liver microsome of rat
The obtained mixture was preincubated at 37° C. for 5 minutes. 50 μl of 100 μM ^3 H-FPP (10 mCi/mmol; NEN) was added to the resulting mixture to initiate a reaction. After 10 minutes, 1 ml of 4N NaOH was added to the mixture to stop the reaction, followed by the addition thereto of 1 ml of ethanol. The obtained mixture was incubated at 80° C. for 12 hours, cooled with ice and extracted with petroleum ether twice. The petroleum ether layers were separated from the aqueous layer and evaporated to dryness with nitrogen gas. The residue was dissolved in 25 μl of chloroform containing squalene, famesol and cholesterol as markers. The obtained solution was applied to TLC (Empore; 412001-1) and developed under the following conditions:
benzene/isopropyl ether (1: 1), 6 min.
The band of squalene was cut from the plate and examined for radioactivity with a liquid scintillation counter to determine the inhibitory ratio.
(2) Preparation of Liver Microsome of Rat
A Sprague-Dawley rat was fed with food containing 2% of cholestyramine (Dowex 1-X2) for at least 5 days to enhance the cholesterol-biosynthesizing activity of the rat. At midnight (0:00), the liver was extirpated from the rat and washed with a 1.154 (w/v) ice-cooled KCl solution to remove the blood from the liver. The resulting liver was cut into small pieces with scissors, homogenized with a Teflon homogenizer of the loose fitting type and subjected to centrifugation (700 g, 10 min). The obtained supernatant was further subjected to centrifugation (15,000 g, 20 min) and the obtained supernatant was furthermore subjected to centrifugation (105,000 g 60 min) to be separated into a microsome fraction and a supernatant. This microsome fraction was washed with a 0.1M potassium phosphate buffer (pH: 7.4) once and suspended in a 0.1M potassium phosphate buffer in the liver concentration of 3 g/ml. The obtained suspension was examined for protein concentration by the Lowry method and the protein concentration was adjusted to 20 mg/ml.
IC50 values of the squalene synthetase inhibiting activity are given in Tables 1 to 5, wherein Me represents a methyl group and Et an ethyl group.

As usually defined, the IC50 is the midpoint of a concentration-inhibition curve. On to `CC(C)=CCC/C(C)=C/CC/C(C)=C/CC(P(=O)(O)O)P(=O)(O)O` [Example 13, (E,E)-4,8,12-Trimethyl-37,11-tridecatrienyl-1,1-bis(phosphonic acid disodium salt)], for which inhibition was half-maximal at 3 nM (IC50). In turn, `CC(C)=CCC/C(C)=C/CC/C(C)=C/CCC(P(=O)(O)O)P(=O)(O)O` [Example 14, (E,E)-5,9,13-Trimethyl-4,8,12-tetradecatrienyl-1,1-bis(phosphonic acid disodium salt)] had a concentration for half-maximal inhibition (IC50) of 5 nM.

In the case of `CC(C)=CCC/C(C)=C/CC(P(=O)(O)O)P(=O)(O)O` [Example 15, (E)-4,8-Dimethyl3,7-nonadienyl-1,1-bis(phosphonic acid disodium salt)], the IC50 amounted to 300 nM. For `CC(C)=CCC/C(C)=C/CC/C(C)=C/CC/C(C)=C/CC(P(=O)(O)O)P(=O)(O)O` [Example 16, (E,E,E)-4,8,12,16-Tetramethyl-3,7,11,15-heptadecatetraenyl-1,1-bis(phosphonic acid disodium salt)] the value was 8 nM; for `CC(C)=CCC/C(C)=C/CC/C(C)=C/CN(C)CCCC(P(=O)(O)O)P(=O)(O)O` [Example 17, 4-{(E,E)-N-Methyl-3,7,11-trimethyl-2,6,10-dodecatrienylamino}butyl-1,1-bis(phosphonic acid disodium salt)], 2 nM.

The molecule `CC(C)=CCC/C(C)=C/CCC(C)N(C)CCCC(P(=O)(O)O)P(=O)(O)O` (centres unmarked) [Example 18, 4-{(E)-N-Methyl-1,5,9-trimethyl-4,8-decadienylamino}-butyl-1,1-bis(phosphonic acid disodium salt)] yielded an IC50 of 3 nM. Compared with the last molecule, the IC50 is about 1.5-fold higher. In turn, `CC(C)=CCC/C(C)=C/CCN(C)CCCC(P(=O)(O)O)P(=O)(O)O` [Example 19, 4-{(E)-N-Methyl-4,8-dimethyl-3,7-nonadienylamino}-butyl-1,1-bis(phosphonic acid disodium salt)] showed a concentration for half-maximal inhibition (IC50) of 1 nM. This IC50 is about 3-fold lower than that of the molecule before.

Take `C/C(=C\CC/C(C)=C/CC(P(=O)(O)O)P(=O)(O)O)CC/C=C/c1ccccc1` [Example 20, (E,E,E)-4,8-Dimethyl-12-phenyl-3,7,11-dodecatrienyl-1,1-bis(phosphonic acid disodium salt)]: the IC50 turned out to be 2 nM. For `C/C(=C\CC(P(=O)(O)O)P(=O)(O)O)CC/C=C(\C)c1ccccc1` [Example 21, (E,E)-4-Methyl-8-phenyl-3,7-nonadienyl-1,1-bis(phosphonic acid disodium salt)] the value was 1 nM; for `C/C(=C\CC(P(=O)(O)O)P(=O)(O)O)CC/C=C/c1ccccc1` [Example 22, (E,E)-4-Methyl-8-phenyl-3,7-octadienyl-1,1-bis(phosphonic acid disodium salt)], 1 nM; for `C/C(=C\CN(C)CCCC(P(=O)(O)O)P(=O)(O)O)CC/C=C(\C)c1ccccc1` [Example 23, 4-{(E,E)-N-Methyl-3-methyl-7-phenyl-2,6-octadienylamino}-butyl-1,1-bis(phosphonic acid disodium salt)], 0.5 nM. `CCOP(=O)(O)C(CC/C=C(\C)CC/C=C(\C)CCC=C(C)C)C(=O)O` (centres unmarked) [Example 29, Disodium salt of ethyl(E,E)-1-carboxy-5,9,13-trimethyl-4,8,12-tetradecatrienylphosphonate] came in with an IC50 of 7300 nM. This IC50 lies about 15000-fold higher than the previous one. In turn, `CCOP(=O)(O)C(C/C=C/C=C(\C)CC/C=C(\C)CCC=C(C)C)C(=O)O` (centres unmarked) [Example 30, Disodium salt of ethyl (E,E,E)-1-carboxy-6,10,14-trimethyl-3,5,9,13-pentadecatetraenylphosphonate] had an IC50 of 7100 nM. The molecule `CCOC(=O)C(C/C=C(\C)CC/C=C(\C)CCC=C(C)C)P(=O)(O)O` (centres unmarked) [Example 31, Disodium (E,E)-1-carboethoxy4,8,12-trimethyl-3,7,11-tridecatrienylphosphonate] returned an IC50 of 9400 nM. This IC50 and that of the molecule before are within 1.5-fold of each other. In the case of `CC(C)=CCC/C(C)=C/CC/C(C)=C/CC(C(=O)O)P(=O)(O)O` (centres unmarked) [Example 32, Trisodium salt of (E,E)-carboxy-4,8,12-trimethyl-3,7,11-tridecatrienylphosphonic acid] it was 1600 nM.

In turn, `CC(C)=CCC/C(C)=C/CC/C(C)=C/CCC(C(=O)O)P(=O)(O)O` (centres unmarked) [Example 33, Trisodium salt of-(E,E)-1-carboxy-5,9,13-trimethyl-4,8,12-tetradecatrienylphosphonic acid] registered an IC50 of 180 nM. For `CC(C)=CCC/C(C)=C/CC/C(C)=C/C=C/CC(C(=O)O)P(=O)(O)O` (centres unmarked) [Example 34, Trisodium salt of (E,E,E)-1-carboxy-6,10,14-trimethyl-3,5,9,13-pentadecatetraenylphosphonic acid] the value was 600 nM. Take `CC(C)=CCC/C(C)=C/CC/C(C)=C/CN(C)CCCC(C(=O)O)P(=O)(O)O` (centres unmarked) [Example 35, Trisodium salt of 1-carboxy,4-{(E,E)-N-methyl-3,7,11-trimethyl-2,6,10-dodecatrienylamino}burylphosphonic acid]: the IC50 is 20 nM. For `CC(C)=CCC/C(C)=C/CN(C)CCCC(P(=O)(O)O)P(=O)(O)O` [Example 43, 4-{(E)-N-Methyl-3,7-dimethyl-2,6-octadienylamino}butyl 1,1-bis(phosphonic acid disodium salt)] the value was 3 nM. `CCN(C/C=C(\C)CCC=C(C)C)CCCC(P(=O)(O)O)P(=O)(O)O` [Example 44, 4-{(E)-N-Ethyl-3,7-dimethyl-2,6-octadienylamino}butyl-1,1-bis(phosphoric acid disodium salt)] returned an IC50 of 3 nM.

`CC(C)=CCC/C(C)=C/CNCCCC(P(=O)(O)O)P(=O)(O)O` [Example 45, 4-{(E)-3,7-Dimethyl-2,6-octadienylamino}butyl-1,1-bis(phosphonic acid disodium salt)]: half-maximal inhibition (IC50) was put at 3 nM.

With `CC(C)=CCC/C(C)=C/CCC(C)N(C)CCCCC(P(=O)(O)O)P(=O)(O)O` (centres unmarked) [Example 46, 5-{(E}-N-Methyl-1,5,9-trimethyl-4,8-decadienylamino}-pentyl-1,1-bis(phosphonic acid disodium salt)], half-maximal inhibition (IC50) required 2 nM. `CC(C)=CCC/C(C)=C/CC/C(C)=C/CNC(P(=O)(O)O)P(=O)(O)O` [Example 47, {(E,E)-3,7,11-Trimethyl-2,6,10-dodecatrienylamino}-methylbis(phosphonic acid sodium salt)] registered an IC50 of 2 nM. For `CC(C)=CCC/C(C)=C/CC/C(C)=C/CN(C)C(P(=O)(O)O)P(=O)(O)O` [Example 48, {(E,E)-N-Methyl-3,7,11-trimethyl-2,6,10-dodecatrienylamino}methylbis(phosphonic acid disodium salt)] the value was 1 nM.

`CC(C)=CCC/C(C)=C/CC/C(C)=C/CN(C)CCCCC(P(=O)(O)O)P(=O)(O)O` [Example 49, 5-{(E,E)-N-Methyl-3,7,11-trimethyl-2,6,10-dodecatrienylamino}pentyl-1,1-bis(phosphonic acid disodium salt)] registered an IC50 of 2 nM. This IC50 is about 2-fold higher than that of the molecule before. For `CC(C)=CCC/C(C)=C/CCC(C)N(C)CCCC(C(=O)O)P(=O)(O)O` (centres unmarked) [Example 51, Trisodium salt of 1-carboxy-4,{(E)-N-methyl-1,5,9-trimethyl-4,8-decadienylamino}butylphosphonic acid] the value was 14 nM.
